{"source": "patent US20240358693A1", "about": "“METHODS OF TREATING PAIN” (Aisa Pharma, Inc., priority 2023, published 2024)", "system": "participants with SSc-RP", "assay": "Average duration of weekly RP attacks (minutes)", "format": "in vivo, human", "from_the_text": "The absolute change in average duration of weekly RP attacks from baseline to the end of each dosing period was and will be a secondary outcome variable. The sponsor-developed participant-informed diary was and will be used to record data. Average duration of weekly RP attacks is defined as the total duration of RP attacks divided by total number of RP attacks within the last 7 days of each dosing period. Total duration of RP attacks during the last 7 days of screening period divided by the total number of RP attacks will be used as baseline for the analysis of all periods. The variable will be calculated similar to frequency data as before.", "key": {"[1]": {"details": "Pooled Cilnidipine 10 mg and Cilnidipine 10 mg + Tadalafil 5 mg, Excluding Outliers, by Baseline RCS, subgroup 2, ITT Population - Part A"}, "[2]": {"details": "Pooled Cilnidipine 10 mg and Cilnidipine 10 mg + Tadalafil 5 mg, ITT Part A"}, "[3]": {"details": "Pooled Cilnidipine 10 mg and Cilnidipine 10 mg + Tadalafil 5 mg, by Baseline RCS, subgroup 1, ITT Population - Part A"}, "[4]": {"details": "Pooled Cilnidipine 10 mg and Cilnidipine 10 mg + Tadalafil 5 mg, by Baseline RCS, subgroup 2, ITT Population - Part A"}, "[5]": {"details": "Pooled Cilnidipine 20 mg and Cilnidipine 20 mg + Tadalafil 5 mg, n=4, Excluding Outliers, ITT Part A"}, "[6]": {"details": "Pooled Cilnidipine 20 mg and Cilnidipine 20 mg + Tadalafil 5 mg, n=4, ITT Part A"}, "[7]": {"details": "Pooled Cilnidipine 20 mg and Cilnidipine 20 mg + Tadalafil 5 mg, Baseline RCS subgroup 1 (unnamed), ITT Part A"}, "[8]": {"details": "Pooled Cilnidipine 20 mg and Cilnidipine 20 mg + Tadalafil 5 mg, Baseline RCS subgroup 2 (unnamed), ITT Part A"}, "[9]": {"details": "Pooled Cilnidipine 20 mg and Cilnidipine 20 mg + Tadalafil 5 mg, Excluding Outliers, Baseline RCS subgroup 1 (unnamed), ITT Part A"}, "[10]": {"details": "Pooled Cilnidipine 20 mg and Cilnidipine 20 mg + Tadalafil 5 mg, Excluding Outliers, Baseline RCS subgroup 2 (unnamed), ITT Part A"}, "[11]": {"details": "Pooled Cilnidipine 20 mg and Cilnidipine 20 mg + Tadalafil 5 mg, Excluding Outliers, ITT Population - Part A"}, "[12]": {"details": "Pooled Cilnidipine 20 mg and Cilnidipine 20 mg + Tadalafil 5 mg, Excluding Outliers, by Baseline RCS, subgroup 1, ITT Population - Part A"}}, "data": [{"smiles": "COCCOC(=O)C1=C(C)NC(C)=C(C(=O)OC/C=C/c2ccccc2)C1c1cccc([N+](=O)[O-])c1", "note": "(stereo not shown) [Cilnidipine, cilnidipine]", "values": [{"measurement": "Average Duration of Weekly RP Attacks (All Attacks) Change from Baseline, Mean", "setting": "[1]", "result": -20.38, "unit": "min"}, {"measurement": "Average Duration of Weekly RP Attacks (All Attacks) Change from Baseline, Median", "setting": "[1]", "result": -20.38, "unit": "min"}, {"measurement": "Average Duration of Weekly RP Attacks (All Attacks) Percent Change from Baseline, Mean", "setting": "[1]", "result": "−37.36", "unit": "%"}, {"measurement": "Average Duration of Weekly RP Attacks (All Attacks) Percent Change from Baseline, Median", "setting": "[1]", "result": "−37.36", "unit": "%"}, {"measurement": "Average Duration of Weekly RP Attacks (All Attacks), Mean", "setting": "[1]", "result": 34.17, "unit": "min"}, {"measurement": "Average Duration of Weekly RP Attacks (All Attacks), Median", "setting": "[1]", "result": 34.17, "unit": "min"}, {"measurement": "Average Duration of Weekly RP Attacks (All Attacks) Change from Baseline, Mean", "setting": "[2]", "result": -9.54, "unit": "min"}, {"measurement": "Average Duration of Weekly RP Attacks (All Attacks) Change from Baseline, Median", "setting": "[2]", "result": -8.48, "unit": "min"}, {"measurement": "Average Duration of Weekly RP Attacks (All Attacks) Percent Change from Baseline, Mean", "setting": "[2]", "result": "−19.10", "unit": "%"}, {"measurement": "Average Duration of Weekly RP Attacks (All Attacks) Percent Change from Baseline, Median", "setting": "[2]", "result": "−21.20", "unit": "%"}, {"measurement": "Average Duration of Weekly RP Attacks (All Attacks), Mean", "setting": "[2]", "result": 27.90, "unit": "min"}, {"measurement": "Average Duration of Weekly RP Attacks (All Attacks), Median", "setting": "[2]", "result": 31.52, "unit": "min"}, {"measurement": "Average Duration of Weekly RP Attacks (All Attacks) Change from Baseline, Mean", "setting": "[3]", "result": -4.13, "unit": "min"}, {"measurement": "Average Duration of Weekly RP Attacks (All Attacks) Change from Baseline, Median", "setting": "[3]", "result": -4.13, "unit": "min"}, {"measurement": "Average Duration of Weekly RP Attacks (All Attacks) Percent Change from Baseline, Mean", "setting": "[3]", "result": "−9.97", "unit": "%"}, {"measurement": "Average Duration of Weekly RP Attacks (All Attacks) Percent Change from Baseline, Median", "setting": "[3]", "result": "−9.97", "unit": "%"}, {"measurement": "Average Duration of Weekly RP Attacks (All Attacks), Mean", "setting": "[3]", "result": 24.76, "unit": "min"}, {"measurement": "Average Duration of Weekly RP Attacks (All Attacks), Median", "setting": "[3]", "result": 24.76, "unit": "min"}, {"measurement": "Average Duration of Weekly RP Attacks (All Attacks) Change from Baseline, Mean", "setting": "[4]", "result": -20.38, "unit": "min"}, {"measurement": "Average Duration of Weekly RP Attacks (All Attacks) Change from Baseline, Median", "setting": "[4]", "result": -20.38, "unit": "min"}, {"measurement": "Average Duration of Weekly RP Attacks (All Attacks) Percent Change from Baseline, Mean", "setting": "[4]", "result": "−37.36", "unit": "%"}, {"measurement": "Average Duration of Weekly RP Attacks (All Attacks) Percent Change from Baseline, Median", "setting": "[4]", "result": "−37.36", "unit": "%"}, {"measurement": "Average Duration of Weekly RP Attacks (All Attacks), Mean", "setting": "[4]", "result": 34.17, "unit": "min"}, {"measurement": "Average Duration of Weekly RP Attacks (All Attacks), Median", "setting": "[4]", "result": 34.17, "unit": "min"}, {"measurement": "Average Duration of Weekly Symptomatic RP Attacks, Change from Baseline, Mean", "setting": "[5]", "result": -7.51, "unit": "min"}, {"measurement": "Average Duration of Weekly Symptomatic RP Attacks, Change from Baseline, Median", "setting": "[5]", "result": -3.55, "unit": "min"}, {"measurement": "Average Duration of Weekly Symptomatic RP Attacks, Mean", "setting": "[5]", "result": 27.98, "unit": "min"}, {"measurement": "Average Duration of Weekly Symptomatic RP Attacks, Median", "setting": "[5]", "result": 22.96, "unit": "min"}, {"measurement": "Average Duration of Weekly Symptomatic RP Attacks, Percent Change from Baseline, Mean", "setting": "[5]", "result": "−16.40", "unit": "%"}, {"measurement": "Average Duration of Weekly Symptomatic RP Attacks, Percent Change from Baseline, Median", "setting": "[5]", "result": "−7.30", "unit": "%"}, {"measurement": "Average Duration of Weekly Symptomatic RP Attacks, Change from Baseline, Mean", "setting": "[6]", "result": -7.51, "unit": "min"}, {"measurement": "Average Duration of Weekly Symptomatic RP Attacks, Change from Baseline, Median", "setting": "[6]", "result": -3.55, "unit": "min"}, {"measurement": "Average Duration of Weekly Symptomatic RP Attacks, Mean", "setting": "[6]", "result": 27.98, "unit": "min"}, {"measurement": "Average Duration of Weekly Symptomatic RP Attacks, Median", "setting": "[6]", "result": 22.96, "unit": "min"}, {"measurement": "Average Duration of Weekly Symptomatic RP Attacks, Percent Change from Baseline, Mean", "setting": "[6]", "result": "−16.40", "unit": "%"}, {"measurement": "Average Duration of Weekly Symptomatic RP Attacks, Percent Change from Baseline, Median", "setting": "[6]", "result": "−7.30", "unit": "%"}, {"measurement": "Average Duration of Weekly Symptomatic RP Attacks, Change from Baseline, Mean", "setting": "[7]", "result": -1.01, "unit": "min"}, {"measurement": "Average Duration of Weekly Symptomatic RP Attacks, Change from Baseline, Median", "setting": "[7]", "result": 3.24, "unit": "min"}, {"measurement": "Average Duration of Weekly Symptomatic RP Attacks, Mean", "setting": "[7]", "result": 16.31, "unit": "min"}, {"measurement": "Average Duration of Weekly Symptomatic RP Attacks, Median", "setting": "[7]", "result": 15.46, "unit": "min"}, {"measurement": "Average Duration of Weekly Symptomatic RP Attacks, Percent Change from Baseline, Mean", "setting": "[7]", "result": "−11.86", "unit": "%"}, {"measurement": "Average Duration of Weekly Symptomatic RP Attacks, Percent Change from Baseline, Median", "setting": "[7]", "result": 15.41, "unit": "%"}, {"measurement": "Average Duration of Weekly Symptomatic RP Attacks, Change from Baseline, Mean", "setting": "[8]", "result": -27.00, "unit": "min"}, {"measurement": "Average Duration of Weekly Symptomatic RP Attacks, Change from Baseline, Median", "setting": "[8]", "result": -27.00, "unit": "min"}, {"measurement": "Average Duration of Weekly Symptomatic RP Attacks, Mean", "setting": "[8]", "result": 63.00, "unit": "min"}, {"measurement": "Average Duration of Weekly Symptomatic RP Attacks, Median", "setting": "[8]", "result": 63.00, "unit": "min"}, {"measurement": "Average Duration of Weekly Symptomatic RP Attacks, Percent Change from Baseline, Mean", "setting": "[8]", "result": "−30.00", "unit": "%"}, {"measurement": "Average Duration of Weekly Symptomatic RP Attacks, Percent Change from Baseline, Median", "setting": "[8]", "result": "−30.00", "unit": "%"}, {"measurement": "Average Duration of Weekly Symptomatic RP Attacks, Change from Baseline, Mean", "setting": "[9]", "result": -1.01, "unit": "min"}, {"measurement": "Average Duration of Weekly Symptomatic RP Attacks, Change from Baseline, Median", "setting": "[9]", "result": 3.24, "unit": "min"}, {"measurement": "Average Duration of Weekly Symptomatic RP Attacks, Mean", "setting": "[9]", "result": 16.31, "unit": "min"}, {"measurement": "Average Duration of Weekly Symptomatic RP Attacks, Median", "setting": "[9]", "result": 15.46, "unit": "min"}, {"measurement": "Average Duration of Weekly Symptomatic RP Attacks, Percent Change from Baseline, Mean", "setting": "[9]", "result": "−11.86", "unit": "%"}, {"measurement": "Average Duration of Weekly Symptomatic RP Attacks, Percent Change from Baseline, Median", "setting": "[9]", "result": 15.41, "unit": "%"}, {"measurement": "Average Duration of Weekly Symptomatic RP Attacks, Change from Baseline, Mean", "setting": "[10]", "result": -27.00, "unit": "min"}, {"measurement": "Average Duration of Weekly Symptomatic RP Attacks, Change from Baseline, Median", "setting": "[10]", "result": -27.00, "unit": "min"}, {"measurement": "Average Duration of Weekly Symptomatic RP Attacks, Mean", "setting": "[10]", "result": 63.00, "unit": "min"}, {"measurement": "Average Duration of Weekly Symptomatic RP Attacks, Median", "setting": "[10]", "result": 63.00, "unit": "min"}, {"measurement": "Average Duration of Weekly Symptomatic RP Attacks, Percent Change from Baseline, Mean", "setting": "[10]", "result": "−30.00", "unit": "%"}, {"measurement": "Average Duration of Weekly Symptomatic RP Attacks, Percent Change from Baseline, Median", "setting": "[10]", "result": "−30.00", "unit": "%"}, {"measurement": "Average Duration of Weekly RP Attacks (All Attacks) Change from Baseline, Mean", "setting": "[11]", "result": -4.77, "unit": "min"}, {"measurement": "Average Duration of Weekly RP Attacks (All Attacks) Change from Baseline, Median", "setting": "[11]", "result": -2.73, "unit": "min"}, {"measurement": "Average Duration of Weekly RP Attacks (All Attacks) Percent Change from Baseline, Mean", "setting": "[11]", "result": "−13.86", "unit": "%"}, {"measurement": "Average Duration of Weekly RP Attacks (All Attacks) Percent Change from Baseline, Median", "setting": "[11]", "result": "−2.74", "unit": "%"}, {"measurement": "Average Duration of Weekly RP Attacks (All Attacks), Mean", "setting": "[11]", "result": 27.61, "unit": "min"}, {"measurement": "Average Duration of Weekly RP Attacks (All Attacks), Median", "setting": "[11]", "result": 22.36, "unit": "min"}, {"measurement": "Average Duration of Weekly RP Attacks (All Attacks) Change from Baseline, Mean", "setting": "[12]", "result": 0.00, "unit": "min"}, {"measurement": "Average Duration of Weekly RP Attacks (All Attacks) Change from Baseline, Median", "setting": "[12]", "result": 2.16, "unit": "min"}, {"measurement": "Average Duration of Weekly RP Attacks (All Attacks) Percent Change from Baseline, Mean", "setting": "[12]", "result": "−10.70", "unit": "%"}, {"measurement": "Average Duration of Weekly RP Attacks (All Attacks) Percent Change from Baseline, Median", "setting": "[12]", "result": 17.86, "unit": "%"}, {"measurement": "Average Duration of Weekly RP Attacks (All Attacks), Mean", "setting": "[12]", "result": 15.91, "unit": "min"}, {"measurement": "Average Duration of Weekly RP Attacks (All Attacks), Median", "setting": "[12]", "result": 14.27, "unit": "min"}, {"measurement": "Average Duration of Weekly RP Attacks (All Attacks) Change from Baseline, Mean", "setting": "Pooled Cilnidipine 20 mg and Cilnidipine 20 mg + Tadalafil 5 mg, Excluding Outliers, by Baseline RCS, subgroup 2, ITT Population - Part A", "result": -19.09, "unit": "min"}]}]}
